Among the data in ChEMBL document CHEMBL6114961, “Novel isoxazole thiophene-containing compounds active against Mycobacterium tuberculosis” (Bioorg Med Chem Lett, 2025) are MIC90 values, retold here.

Common to all, as to assay type: functional
Experiment [1] relates to Mycobacterium tuberculosis. Nature of the experiment: Antituberculosis activity against Mycobacterium tuberculosis sCHN240 mutant CR3 strain assessed as reduction in bacterial growth.
Experiment [2] deals with Mycobacterium tuberculosis. Nature of the experiment: Antituberculosis activity against Mycobacterium tuberculosis sCHN240 mutant CR5 strain assessed as reduction in bacterial growth.
Experiment [3] concerns Mycobacterium tuberculosis. The experiment is described as follows: Antituberculosis activity against Mycobacterium tuberculosis sCHN240 mutant CR2 strain assessed as reduction in bacterial growth.
The subject of experiment [4] is Mycobacterium tuberculosis. The experiment is described as follows: Antituberculosis activity against Mycobacterium tuberculosis sCHN240 mutant CR1 strain assessed as reduction in bacterial growth.
Experiment [5] has as its system Mycobacterium tuberculosis. Nature of the experiment: Antituberculosis activity against Mycobacterium tuberculosis sCHN240 mutant CR6 strain assessed as reduction in bacterial growth.
Experiment [6] relates to Mycobacterium tuberculosis. Nature of the experiment: Antituberculosis activity against Mycobacterium tuberculosis Rv1625c mutant assessed as reduction in bacterial growth measured after 7 days using 7H9 broth by Alamar blue staining based analysis. The note with it: time 7 day. (Alamar Blue is a resazurin reagent that responds to reducing activity.)

Molecules are shown by their SMILES. ≈ marks a conversion by molar mass, not a printed value. Some results are limits rather than exact numbers.

Regarding `Cn1ncnc1CC(=O)N1CCC(c2nc(-c3ccc(Cl)c(Cl)c3)no2)CC1`, the MIC90 in experiment [1], in experiment [2], in experiment [3], in experiment [4] and in experiment [5] was over 20 µM throughout.
With `O=S(=O)(Nc1cc(-c2ccsc2)no1)c1ccccc1F`, the MIC90 in experiment [6] amounted to 19.9 µM (≈ 6.45 µg/mL).

A word on the MIC90: it is an inhibitory concentration at the 90% level, which refers to growth in some studies and to a panel of isolates in others.
